Legend:
CYP2C19 = target: T1, CYP2C19 (Homo sapiens, UniProt P33261); test: Single concentration Kobs assay (time-dependent inhibition) in HLM; type: biochemical; settings: for Kobs 2C19: HLM, 0.02 min^−1 indicates TD inhibition potential; for Kobs 2C19 / inhibition at 30 min: single concentration; for Single concentration Kobs assay (risk bin) 2C19: TD inhibition class from Kobs vs 0.02 min^−1 (Table 5 traffic lights); for inhibition at 30 min: human, human liver microsomes, significant if >50%, read-out: 2C19 R_Inh% (reversible inhibition)
T1 construct: Using HLM as the enzyme source; from tissue; host or cells: human liver microsomes
Source text: (§1) CYP inhibition evaluation is typically performed by either IC50 at single-point or IC50 Shift or abbreviated assay such as the first-order inactivity rate constant (K obs ) at single concentration.
(§2) This method yielded good correlations between the percent inhibition at 10 or 25 μ M and kinact/KI. Evaluation of TD inhibition at single concentration has been implemented in several drug discovery programs. […] Therefore, in this study, a single K obs approach has been utilized to understand the TD inhibition potential of TbB ligands. Ideally, the inhibition of CYPs can be reversible or irreversible. The data obtained from single-concentration K obs studies were analyzed to understand the same. From the data presented in Table 4, the TbB ligands have values less than 50% for reversible inhibition (R_Inh). As the qualified % reversible inhibition is considered significant if >50%, no significant reversible inhibition is observed for TbB ligands. Knowledge about enzyme inactivation half-life (E½) is also equally important as it would provide insight into the TD inhibition of a compound. E½ can be used to bin the compounds as positive or negative TD inhibitors if the values are <28 or >28, respectively. The TbB ligand 223-2 is observed to be a weak positive TD inhibitor of 1A2 and is negative TD inhibitor to the other six CYP isoforms.
(§3) The time-dependent inhibition (TDI) potential of test compounds against CYP1A2, 2B6, 2C8, 2C9, 2C19, 2D6, 3A4/5 isoforms were determined using Human liver microsomes. Assay is performed in 96-deep well plate format (n = 1). Positive controls and DMSO as negative control in each assay. To obtain 100 μ M working stock solution, 1 μ L of blank DMSO/test/reference compounds to 100 μ L 1× DPBS buffer was added and labeled as dilution plate. To the primary incubation plate, 45 μ L of primary mix was dispensed to the desired wells containing 25 μ L HLM, 10 μ L MgCl2, and 10 μ L of NADPH working solutions. To the secondary incubation plate, 95 μ L of secondary mix was dispensed to the desired wells containing 20 μ L MgCl2, 20 μ L NADPH, 10 μ L respective substrates for CYP isoform working solutions and 45 μ L 1× DPBS buffer. […] Pre-incubated the dilution plate along with primary incubation plate at 37 °C for 15 min at 450 rpm. The reaction was carried out in triplicate. After the incubation, the reaction was quenched by adding 150 μ L ice cold stop solution to all the wells followed by centrifuging the samples at 4000 rpm, 4 °C for 15 min. The supernatant samples were then transferred into vials for LC-MS/MS analysis. […]

CYP1A2 = target: T2, CYP1A2 (Homo sapiens, UniProt P05177); test: as above; type: biochemical; settings: for Kobs 1A2: HLM, 0.02 min^−1 indicates TD inhibition potential; for Kobs 1A2 / inhibition at 30 min: single concentration; for Single concentration Kobs assay (risk bin) 1A2: TD inhibition class from Kobs vs 0.02 min^−1 (Table 5 traffic lights); for inhibition at 30 min: human, human liver microsomes, significant if >50%, read-out: 1A2 R_Inh% (reversible inhibition)
T2 construct: Using HLM as the enzyme source; from tissue; host or cells: human liver microsomes
T2 sequence (P05177 1-516): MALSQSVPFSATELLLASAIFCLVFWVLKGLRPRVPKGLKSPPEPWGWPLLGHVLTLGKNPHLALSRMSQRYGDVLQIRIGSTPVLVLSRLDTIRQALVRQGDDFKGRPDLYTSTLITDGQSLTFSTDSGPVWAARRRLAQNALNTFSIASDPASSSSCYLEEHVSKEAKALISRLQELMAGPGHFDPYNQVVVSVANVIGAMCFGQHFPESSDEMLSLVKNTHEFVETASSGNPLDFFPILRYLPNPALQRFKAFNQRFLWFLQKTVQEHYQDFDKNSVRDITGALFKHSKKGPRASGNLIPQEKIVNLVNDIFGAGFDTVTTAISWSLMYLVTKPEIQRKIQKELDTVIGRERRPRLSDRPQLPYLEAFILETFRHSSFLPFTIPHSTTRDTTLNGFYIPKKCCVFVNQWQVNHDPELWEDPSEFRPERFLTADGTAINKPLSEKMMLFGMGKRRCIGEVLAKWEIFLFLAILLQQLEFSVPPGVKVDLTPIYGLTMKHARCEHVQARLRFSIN
Source text: as §1, §2, §3

[1] = Substrate depletion assay in cryopreserved human hepatocytes (CPHH); type: in vitro ADME; settings: pooled cryopreserved human hepatocytes; for half-life at 1 µM: pH 7.3, test conc. 1.0E-06 M (Table S4); for half-life / hepatocyte CLint: pH 7.3, test conc. 1×10^−6 M, n = 3
Experimental: Microsomal stability was determined for the TbB ligands by monitoring the presence of compound after incubation in CPHH and HLM, as shown in Figure 7 and Figure S18 of the Supporting Information. […] Such an observation with NCEs is common because, with HLM, NADPH is used as a cofactor, thereby focusing mainly on phase 1 oxidation pathways such as P450 metabolism. Although additional enzymes, such as UDP-glucuronosyltransferase (UGTs), are present in HLM, the lack of the associated necessary cofactors prevents them from being functionally active (e.g., uridine diphosphate glucuronic acid (UDPGA)). In contrast, all the three TbB ligands metabolized in cryopreserved hepatocytes (Figure 7). […] The reason could be that hepatocytes have all the necessary enzymes and cofactors for the metabolic processes. Since they contain the complete set of oxidative/reductive, hydrolytic, and conjugative drug metabolizing enzymes found in the liver, they are regarded as the gold standard. Therefore, they are preferred in vitro options for expressing metabolic stability as substrate depletion, total metabolic clearance, and T 1/2 [29].
From the plot shown in Figure S18 of the Supporting Information, it can be inferred that the TbB ligands undergo slow biotransformation in HLM. Such high metabolic stability may result in drug interactions leading to toxicity of the parent compound. On the contrary, TbB ligands are undergoing rapid biotransformation in CPHH (Figure 7), and this may lead to generation of metabolites that are either toxic, active, or nonactive. Metabolic stability is typically expressed by in vitro half-life T 1/2 and intrinsic clearance (CLint) terms. Intrinsic clearance (CLint) is measured using the substrate depletion method. It describes the maximum liver (microsomal proteins or hepatocytes) activity towards a compound not affected by other physiological factors such as hepatic blood flow and drug binding within the blood matrix. T 1/2 is used to express the time for the 50% disappearance of the parent compound. A possible explanation for the difference in metabolic stability might be that the TbB ligands bind to microsomes during incubation. This can result in decreased free TbB ligand levels available to interact with metabolizing enzymes, reducing apparent intrinsic clearance values.
The test compound stability in a pooled human cryopreserved hepatocytes was tested after thawing, washing, and resuspending the cryopreserved hepatocytes in Krebs–Heinslet buffer (pH 7.3). The onset of reaction happens by the addition of the test compound into cell suspension and incubated for 0, […], 1, 1.5, and 2 h, respectively, at 37 °C/5% CO 2 . The reaction is terminated in the incubation mixture by the addition of acetonitrile. After thorough sample mixing, the sample was completely transferred to another 96-well plate and centrifuged, followed by HPLC-MS/MS analysis of supernatant. Four compounds as reference, namely, propranolol, a relatively stable and readily metabolizing flurazepam, naloxone, and HFC (7-hydroxy-4-trifluoromethyl-coumarin) in human hepatocytes were included in each assay. Data analysis was performed as mentioned above and the intrinsic clearance (CLint) is calculated from the half-life using the following equation. CLint(μL/min/millioncells)=0.693/T1/2×CellDensity.

T1 sequence (P33261 whole entry): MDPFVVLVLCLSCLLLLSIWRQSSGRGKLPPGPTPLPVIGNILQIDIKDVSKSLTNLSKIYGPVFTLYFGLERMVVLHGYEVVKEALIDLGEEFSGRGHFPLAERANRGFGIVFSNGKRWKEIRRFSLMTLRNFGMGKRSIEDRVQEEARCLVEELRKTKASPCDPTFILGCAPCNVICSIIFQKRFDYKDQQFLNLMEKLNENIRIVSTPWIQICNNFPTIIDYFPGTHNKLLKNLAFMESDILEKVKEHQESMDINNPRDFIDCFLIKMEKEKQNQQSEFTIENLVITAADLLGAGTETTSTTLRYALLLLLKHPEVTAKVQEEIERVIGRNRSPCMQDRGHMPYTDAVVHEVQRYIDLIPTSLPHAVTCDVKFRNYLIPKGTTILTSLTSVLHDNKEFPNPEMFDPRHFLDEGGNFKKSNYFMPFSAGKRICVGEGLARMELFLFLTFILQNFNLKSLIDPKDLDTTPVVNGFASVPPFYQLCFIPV

SMILES | Kobs 2C19 (CYP2C19) [min⁻¹] | Kobs 2C19 (CYP2C19; listed as 223-02) [min⁻¹] | Single concentration Kobs assay (risk bin) 2C19 (CYP2C19) | inhibition at 30 min (CYP2C19) [%] | Kobs 1A2 (CYP1A2) [min⁻¹] | Kobs 1A2 (CYP1A2; listed as 223-02) [min⁻¹] | Single concentration Kobs assay (risk bin) 1A2 (CYP1A2) | inhibition at 30 min (CYP1A2) [%] | half-life at 1 µM [1] [min] | half-life [1] [min] | hepatocyte CLint [1] [µL/min/1e6 cells] | Kobs 2C19 (CYP2C19; listed as 223-03) [min⁻¹] | Kobs 1A2 (CYP1A2; listed as 223-03) [min⁻¹]
COc1cc(-c2nnn(-c3cc(OC)c(O)c(OC)c3)n2)cc(OC)c1O [223-2] | 0.0206 | 0.02058 | weak positive inhibitor | < 50 | 0.0159 | 0.01594 | weak positive inhibitor | < 50 | 33 | 33 | 29.8 | – | –
Oc1ccc(-c2nnn(-c3ccc(O)cc3)n2)cc1 [223-10] | 0.00365 | – | negative inhibitor | < 50 | 0.01456 | – | weak positive inhibitor | < 50 | 36 | 36 | 27.8 | – | –
Cc1cc(-c2nnn(-c3cc(C)c(O)c(C)c3)n2)cc(C)c1O [223-3] | 0.0306 | – | positive inhibitor | < 50 | 0.0333 | – | positive inhibitor | < 50 | 54 | 54 | 18.4 | 0.03055 | 0.03334
